From patent publication US12643903B2, “Bifunctional compounds for degradation of EGFR and related methods of use” (BeiGene, Ltd., priority 2020, dated 2026) come the findings set out here.

Test [1] has as its target T1, EGFR (Homo sapiens, UniProt P00533, L858R/T790M).
T1 construct: endogenous in cells; host or cells: H1975
Put plainly: Cell Degradation 1: EGFR degradation in H1975 cells, HTRF assay. Type of test: cell-based. As to conditions: 16 h treatment, EGFR degradation by HTRF. The protocol:
After 16 h treatment, add 100 μl 1×lysis buffer to each well; seal the plate and incubate 1 hour at room temperature on a plate shaker; Once the cells are lysed, 16 μL of cell lysate are transferred to a PE 384-well HTRF detection plate; 4 μL of pre-mixed HTRF antibodies are added to each well; Cover the plate with a plate sealer, spin 1000 rpm for 1 min, Incubate overnight at room temperature; Read on BMG PheraStar with HTRF protocol (337 nm-665 nm-620 nm).
(§1) The IC50 (DC50) value of a compound can be obtained by fitting the following equation Y=Bottom+(TOP−Bottom)/(1+((IC50/X)^hillslope))
(§2) Wherein, X and Y are known values, and IC50, Hillslope, Top and Bottom are the parameters obtained by fitting with software. Y is the inhibition percentage (calculated from the equation), X is the concentration of the compound; IC50 is the concentration of the compound when the 50% inhibition is reached. The smaller the IC50 value is, the stronger the inhibitory ability of the compound is. Vice versa, the higher the IC50 value is, the weaker the ability the inhibitory ability of the compound is; Hillslope represents the slope of the fitted curve, generally around 1*; Bottom represents the minimum value of the curve obtained by data fitting, which is generally 0%±20%; Top represents the maximum value of the curve obtained by data fitting, which is generally 100%±20%. The experimental data were fitted by calculating and analyzing with Dotmatics data analysis software.

Test [2] deals with T2, EGFR (Homo sapiens, UniProt P00533, DEL746-750).
T2 construct: endogenous in cells; host or cells: HCC827
Put plainly: Cell Degradation 2: EGFR degradation in HCC827 cells, HTRF assay. Format: cell-based. To be noted: 16 h treatment, EGFR degradation by HTRF. The protocol: After 16 h treatment, add 100 μl 1×lysis buffer to each well; seal the plate and incubate 1 hour at room temperature on a plate shaker; Once the cells are lysed, 16 μl diluted (2 μL to 14 μl 1× lysisi buffer) cell lysate are transferred to a PE 384-well HTRF detection plate; 4 μL of pre-mixed HTRF antibodies are added to each well; Cover the plate with a plate sealer, spin 1000 rpm for 1 min, Incubate overnight at room temperature; Read on BMG PheraStar with HTRF protocol (337 nm-665 nm-620 nm).
as §1, §2
Background: TR-FRET usually uses a lanthanide donor and a delayed reading to cut background.

Broadly, the DC50 is the concentration giving 50% degradation.

T1 sequence (P00533 25-1210 T790M/L858R): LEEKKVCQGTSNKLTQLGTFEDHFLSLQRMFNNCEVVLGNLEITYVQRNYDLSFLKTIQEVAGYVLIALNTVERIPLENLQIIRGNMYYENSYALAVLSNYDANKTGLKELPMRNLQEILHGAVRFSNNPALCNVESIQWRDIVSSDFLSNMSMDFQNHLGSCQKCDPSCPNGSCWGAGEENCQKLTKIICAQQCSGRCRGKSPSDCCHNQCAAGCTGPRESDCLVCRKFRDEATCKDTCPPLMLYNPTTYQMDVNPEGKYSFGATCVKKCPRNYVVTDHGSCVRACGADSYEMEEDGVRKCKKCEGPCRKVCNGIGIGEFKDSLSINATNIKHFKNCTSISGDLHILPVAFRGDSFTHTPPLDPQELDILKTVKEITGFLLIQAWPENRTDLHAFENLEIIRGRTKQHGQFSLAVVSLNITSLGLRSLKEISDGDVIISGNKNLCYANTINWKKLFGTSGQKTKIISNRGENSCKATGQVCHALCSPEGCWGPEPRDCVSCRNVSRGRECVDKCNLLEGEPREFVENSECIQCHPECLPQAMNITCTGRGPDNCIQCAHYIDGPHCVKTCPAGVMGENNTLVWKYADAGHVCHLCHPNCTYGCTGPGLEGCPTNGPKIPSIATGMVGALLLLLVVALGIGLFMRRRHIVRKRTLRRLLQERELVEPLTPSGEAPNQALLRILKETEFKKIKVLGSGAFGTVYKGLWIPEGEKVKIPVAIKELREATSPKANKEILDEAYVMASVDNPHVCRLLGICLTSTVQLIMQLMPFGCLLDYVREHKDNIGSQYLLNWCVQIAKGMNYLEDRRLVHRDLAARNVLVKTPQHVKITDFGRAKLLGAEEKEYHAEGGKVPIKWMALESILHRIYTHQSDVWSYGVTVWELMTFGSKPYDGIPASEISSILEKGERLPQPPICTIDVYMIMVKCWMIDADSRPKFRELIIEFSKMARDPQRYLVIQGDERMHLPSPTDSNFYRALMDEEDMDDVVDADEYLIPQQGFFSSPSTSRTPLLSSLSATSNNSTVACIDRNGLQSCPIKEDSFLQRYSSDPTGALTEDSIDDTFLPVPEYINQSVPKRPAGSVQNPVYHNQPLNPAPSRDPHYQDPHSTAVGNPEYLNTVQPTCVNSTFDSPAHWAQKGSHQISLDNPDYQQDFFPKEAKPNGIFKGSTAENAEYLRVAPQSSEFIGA
T2 sequence (P00533 with tags, fused parts or gaps DEL746-750): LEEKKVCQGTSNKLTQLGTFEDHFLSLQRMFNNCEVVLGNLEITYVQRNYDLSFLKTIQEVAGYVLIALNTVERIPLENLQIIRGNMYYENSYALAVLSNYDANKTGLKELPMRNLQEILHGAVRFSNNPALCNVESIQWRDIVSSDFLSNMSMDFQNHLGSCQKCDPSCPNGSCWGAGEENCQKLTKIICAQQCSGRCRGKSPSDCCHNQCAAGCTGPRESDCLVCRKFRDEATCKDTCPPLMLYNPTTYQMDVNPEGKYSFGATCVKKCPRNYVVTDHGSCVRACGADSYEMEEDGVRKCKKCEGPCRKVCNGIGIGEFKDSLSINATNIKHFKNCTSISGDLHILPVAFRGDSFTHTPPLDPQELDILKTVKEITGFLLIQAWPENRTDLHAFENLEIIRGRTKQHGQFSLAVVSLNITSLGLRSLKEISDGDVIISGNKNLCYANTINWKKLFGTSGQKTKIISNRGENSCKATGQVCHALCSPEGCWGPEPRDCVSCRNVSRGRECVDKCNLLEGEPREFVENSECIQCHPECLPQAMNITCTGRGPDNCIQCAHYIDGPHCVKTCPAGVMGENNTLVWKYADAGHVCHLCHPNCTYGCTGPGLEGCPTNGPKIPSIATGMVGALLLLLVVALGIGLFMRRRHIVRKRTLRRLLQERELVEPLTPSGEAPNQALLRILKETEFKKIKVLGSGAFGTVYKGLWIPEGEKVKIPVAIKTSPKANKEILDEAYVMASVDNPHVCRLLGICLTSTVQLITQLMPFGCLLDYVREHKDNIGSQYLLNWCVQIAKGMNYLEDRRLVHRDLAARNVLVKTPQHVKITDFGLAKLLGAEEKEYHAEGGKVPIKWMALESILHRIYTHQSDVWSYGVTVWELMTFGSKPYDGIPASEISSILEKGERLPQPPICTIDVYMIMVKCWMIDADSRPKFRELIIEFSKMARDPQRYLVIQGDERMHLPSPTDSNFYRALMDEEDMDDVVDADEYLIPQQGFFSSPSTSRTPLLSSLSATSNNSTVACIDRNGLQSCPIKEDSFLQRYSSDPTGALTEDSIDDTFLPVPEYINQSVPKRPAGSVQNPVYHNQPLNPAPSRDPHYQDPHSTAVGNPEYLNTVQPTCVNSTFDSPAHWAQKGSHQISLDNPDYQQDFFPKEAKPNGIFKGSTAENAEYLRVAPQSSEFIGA
T2 sequence (Q96SW2 whole entry partner): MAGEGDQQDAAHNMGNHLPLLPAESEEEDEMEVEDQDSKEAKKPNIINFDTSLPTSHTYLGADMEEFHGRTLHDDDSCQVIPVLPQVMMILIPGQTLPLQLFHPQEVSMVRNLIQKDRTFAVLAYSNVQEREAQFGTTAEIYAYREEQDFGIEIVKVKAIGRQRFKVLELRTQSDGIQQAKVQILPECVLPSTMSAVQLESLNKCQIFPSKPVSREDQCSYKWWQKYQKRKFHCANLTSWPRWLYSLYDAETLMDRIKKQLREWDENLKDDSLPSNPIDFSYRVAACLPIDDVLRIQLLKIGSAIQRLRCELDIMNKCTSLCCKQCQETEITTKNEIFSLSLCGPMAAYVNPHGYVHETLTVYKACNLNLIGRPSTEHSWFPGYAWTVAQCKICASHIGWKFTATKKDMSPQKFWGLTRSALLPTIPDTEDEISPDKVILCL

Take `CS(=O)(=O)N1CCc2cccc(Nc3nc(Nc4ccc(N5CCC(N6CCN(CCC7CCN(c8ccc9c(c8)C(=O)N(C8CCC(=O)NC8=O)C9=O)CC7)CC6)CC5)c(F)c4)nc4[nH]ccc34)c21` (stereo not shown) [Example 17, 2-(2,6-dioxopiperidin-3-yl)-5-(4-(2-(4-(1-(2-fluoro-4-((4-((1-(methylsulfonyl)indolin-7-yl)amino)-7H-pyrrolo[2,3-d]pyrimidin-2-yl)amino)phenyl)piperidin-4-yl)piperazin-1-yl)ethyl)piperidin-1-yl)isoindoline-1,3-dione]: the DC50 on EGFR [1] was 9.6 nM; at EGFR [2], 30.8 nM.

For the compound `CN(CCC1CCN(c2ccc(C3CCC(=O)NC3=O)cc2)CC1)C1CCN(c2ccc(Nc3ncc(Cl)c(Nc4cccc5c4N(S(C)(=O)=O)CC5)n3)c3c2CCO3)CC1` (stereo not shown) [Example 49, 3-(4-(4-(2-((1-(7-((5-chloro-4-((1-(methylsulfonyl)indolin-7-yl)amino)pyrimidin-2-yl)amino)-2,3-dihydrobenzofuran-4-yl)piperidin-4-yl)(methyl)amino)ethyl)piperidin-1-yl)phenyl)piperidine-2,6-dione], the DC50 at EGFR [1] is > 10000 nM; on EGFR [2], 138 nM.

`CS(=O)(=O)N1CCc2cccc(Nc3nc(Nc4ccc(N5CCC(N6CCN(C(=O)C7CCN(CC8CCN(c9ccc%10c(c9)C(=O)N(C9CCC(=O)NC9=O)C%10=O)CC8)CC7)CC6)CC5)c(F)c4)nc4[nH]ccc34)c21` (stereo not shown) [Example 14, 2-(2,6-dioxopiperidin-3-yl)-5-(4-((4-(4-(1-(2-fluoro-4-((4-((1-(methylsulfonyl)indolin-7-yl)amino)-7H-pyrrolo[2,3-d]pyrimidin-2-yl)amino)phenyl)piperidin-4-yl)piperazine-1-carbonyl)piperidin-1-yl)methyl)piperidin-1-yl)isoindoline-1,3-dione]: the DC50 at EGFR [1] was 27.1 nM; at EGFR [2], 92.2 nM.

Take `CS(=O)(=O)N1CCc2cccc(Nc3nc(Nc4ccc(N5CCC(N6CCN(CCCOc7ccc(OC8CCC(=O)NC8=O)cc7)CC6)CC5)c(F)c4)nc4[nH]ccc34)c21` (stereo not shown) [Example 4, 3-(4-(3-(4-(1-(2-fluoro-4-((4-((1-(methylsulfonyl)indolin-7-yl)amino)-7H-pyrrolo[2,3-d]pyrimidin-2-yl)amino)phenyl)piperidin-4-yl)piperazin-1-yl)propoxy)phenoxy)piperidine-2,6-dione]: the figures for the DC50 at EGFR [1] and on EGFR [2] were 15.5 nM and > 10000 nM, respectively.

With `COc1cc(Nc2nc(Nc3cccc4c3N(S(C)(=O)=O)CC4)c3cc[nH]c3n2)ccc1N1CCC(N2CCN(C(=O)[C@H]3CCN(c4ccc5c(c4)C(=O)N(C4CCC(=O)NC4=O)C5=O)C3)CC2)CC1` (stereo partly drawn) [Example 74, 2-(2,6-dioxopiperidin-3-yl)-5-((S)-3-(4-(1-(2-methoxy-4-((4-((1-(methylsulfonyl)indolin-7-yl)amino)-7H-pyrrolo[2,3-d]pyrimidin-2-yl)amino)phenyl)piperidin-4-yl)piperazine-1-carbonyl)pyrrolidin-1-yl)isoindoline-1,3-dione], the DC50 was 4.7 nM on EGFR [1] and > 10000 nM on EGFR [2].

For `COc1cc(N2CCC(N3CCN(CCC4CN(c5ccc(C6CCC(=O)NC6=O)cc5)C4)CC3)CC2)ccc1Nc1ncc(Cl)c(Nc2cccc3c2N(S(C)(=O)=O)CC3)n1` (stereo not shown) [Example 84, 3-(4-(3-(2-(4-(1-(4-((5-chloro-4-((1-(methylsulfonyl)indolin-7-yl)amino)pyrimidin-2-yl)amino)-3-methoxyphenyl)piperidin-4-yl)piperazin-1-yl)ethyl)azetidin-1-yl)phenyl)piperidine-2,6-dione], the figures for the DC50 at EGFR [1] and at EGFR [2] were > 10000 nM and 1980 nM, respectively.

`COc1cc(Nc2nc(Nc3cccc4c3N(S(C)(=O)=O)CC4)c3cc[nH]c3n2)ccc1N1CCC(N2CCN(C(=O)C3CN(c4ccc5c(c4)C(=O)N(C4CCC(=O)NC4=O)C5=O)C3)CC2)CC1` (stereo not shown) [Example 73, 2-(2,6-dioxopiperidin-3-yl)-5-(3-(4-(1-(2-methoxy-4-((4-((1-(methylsulfonyl)indolin-7-yl)amino)-7H-pyrrolo[2,3-d]pyrimidin-2-yl)amino)phenyl)piperidin-4-yl)piperazine-1-carbonyl)azetidin-1-yl)isoindoline-1,3-dione]: the DC50 at EGFR [1] stood at 3.4 nM; at EGFR [2], 1170 nM.

For the compound `CS(=O)(=O)N1CCc2cccc(Nc3nc(Nc4ccc(N5CCC(N6CCN(CCC7CCN(c8ccc(C9CCC(=O)NC9=O)c(C#N)c8)CC7)CC6)CC5)c(F)c4)nc4[nH]ccc34)c21` (stereo not shown) [Example 10, 2-(2,6-dioxopiperidin-3-yl)-5-(4-(2-(4-(1-(2-fluoro-4-((4-((1-(methylsulfonyl)indolin-7-yl)amino)-7H-pyrrolo[2,3-d]pyrimidin-2-yl)amino)phenyl)piperidin-4-yl)piperazin-1-yl)ethyl)piperidin-1-yl)benzonitrile], the DC50 is 9.3 nM on EGFR [1] and > 10000 nM at EGFR [2].

For `CS(=O)(=O)N1CCc2cccc(Nc3nc(Nc4ccc(N5CCC(N6CCN(CCOc7cccc8c7CN(C7CCC(=O)NC7=O)C8=O)CC6)CC5)c(F)c4)nc4[nH]ccc34)c21` (stereo not shown) [Example 20, 3-(4-(2-(4-(1-(2-fluoro-4-((4-((1-(methylsulfonyl)indolin-7-yl)amino)-7H-pyrrolo[2,3-d]pyrimidin-2-yl)amino)phenyl)piperidin-4-yl)piperazin-1-yl)ethoxy)-1-oxoisoindolin-2-yl)piperidine-2,6-dione], the DC50 on EGFR [1] worked out at 9.7 nM; at EGFR [2], 14.7 nM.

In the case of `COc1cc(N2CCC(N3CCN(CCC4CCN(c5ccc(C6CCC(=O)NC6=O)cc5)CC4)CC3)CC2)c(C)cc1Nc1ncc(Br)c(Nc2cccc3c2N(S(C)(=O)=O)CC3)n1` (stereo not shown) [Example 41, 3-(4-(4-(2-(4-(1-(4-((5-bromo-4-((1-(methylsulfonyl)indolin-7-yl)amino)pyrimidin-2-yl)amino)-5-methoxy-2-methylphenyl)piperidin-4-yl)piperazin-1-yl)ethyl)piperidin-1-yl)phenyl)piperidine-2,6-dione], the DC50 on EGFR [1] amounted to 20.7 nM; on EGFR [2], 16.7 nM.

For `COc1cc(N2CCC(N3CCN(C(=O)C4CCN(CC5CCN(c6ccc7c(c6)C(=O)N(C6CCC(=O)NC6=O)C7=O)CC5)CC4)CC3)CC2)c(C)cc1Nc1ncc(Br)c(Nc2cccc3c2N(S(C)(=O)=O)CC3)n1` (stereo not shown) [Example 43, 5-(4-((4-(4-(1-(4-((5-bromo-4-((1-(methylsulfonyl)indolin-7-yl)amino)pyrimidin-2-yl)amino)-5-methoxy-2-methylphenyl)piperidin-4-yl)piperazine-1-carbonyl)piperidin-1-yl)methyl)piperidin-1-yl)-2-(2,6-dioxopiperidin-3-yl)isoindoline-1,3-dione], the DC50 at EGFR [1] was determined as 49.1 nM; on EGFR [2] it was 11.1 nM.

As to `CS(=O)(=O)N1CCc2cccc(Nc3nc(Nc4ccc(N5CCC(N6CCN(C(=O)CCN7CCC(c8ccc(C9CCC(=O)NC9=O)cc8)CC7)CC6)CC5)c(F)c4)nc4[nH]ccc34)c21` (stereo not shown) [Example 11, 3-(4-(1-(3-(4-(1-(2-fluoro-4-((4-((1-(methylsulfonyl)indolin-7-yl)amino)-7H-pyrrolo[2,3-d]pyrimidin-2-yl)amino)phenyl)piperidin-4-yl)piperazin-1-yl)-3-oxopropyl)piperidin-4-yl)phenyl)piperidine-2,6-dione], the DC50 on EGFR [1] is 23.7 nM; on EGFR [2] it was 123 nM.

In the case of `CS(=O)(=O)N1CCc2cccc(Nc3nc(Nc4ccc(N5CCC(N6CCN(CCc7ccc(NC8CCC(=O)NC8=O)cc7)CC6)CC5)c(F)c4)nc4[nH]ccc34)c21` (stereo not shown) [Example 66, 3-((4-(2-(4-(1-(2-fluoro-4-((4-((1-(methylsulfonyl)indolin-7-yl)amino)-7H-pyrrolo[2,3-d]pyrimidin-2-yl)amino)phenyl)piperidin-4-yl)piperazin-1-yl)ethyl)phenyl)amino)piperidine-2,6-dione], the half-maximal degradation concentration (DC50) at EGFR [1] worked out at 7.1 nM; on EGFR [2] it was 18 nM.

For `COc1cc(N2CCC(N3CCN(CC4CCN(c5ccc(C6CCC(=O)NC6=O)cc5)CC4)CC3)CC2)c(C)cc1Nc1ncc(Br)c(Nc2cccc3c2N(S(C)(=O)=O)CC3)n1` (stereo not shown) [Example 40, 3-(4-(4-((4-(1-(4-((5-bromo-4-((1-(methylsulfonyl)indolin-7-yl)amino)pyrimidin-2-yl)amino)-5-methoxy-2-methylphenyl)piperidin-4-yl)piperazin-1-yl)methyl)piperidin-1-yl)phenyl)piperidine-2,6-dione], the values for the DC50 on EGFR [1] and on EGFR [2] were 10.5 nM and 8.2 nM, respectively.
